The values below come from patent US20110269811A1, “INHIBITORS OF SEMICARBAZIDE-SENSITIVE AMINE OXIDASE (SSAO) AND VAP-1 MEDIATED ADHESION USEFUL FOR TREATMENT AND PREVENTION OF DISEASES” (priority 2006, published 2011).

Assay [1] relates to P2X. The experiment in a line: Receptor binding screen, [^3H]α,β-MeATP, rat urinary bladder. The following applies: 10 uM Concentration of Compound I-1-Z.
Assay [2] concerns the target T1, A2A (h) (Homo sapiens, UniProt P29274).
T1 construct: expressed in transfected cells; host or cells: HEK-293 cells
Briefly: Receptor binding screen, [^3H]CGS 21680. The conditions noted are these: 10 uM Concentration of Compound I-1-Z; read-out: Mean Value, percent inhibition of control specific binding: A2A (h).

Assay [3] concerns carrageenan-induced paw edema. Briefly: Carrageenan-induced rat paw edema. The following applies: for paw swelling: 50 mg/kg orally 60 min prior to carrageenan. It counts as in vivo, Sprague Dawley rats. The source says: Carrageenan-induced paw edema has been extensively used in the evaluation of anti-inflammatory effects of various therapeutic agents and is a useful experimental system for assessing the efficacy of compounds to alleviate acute inflammation (Whiteley P E and Dalrymple S A, 1998. Models of inflammation: carrageenan-induced paw edema in the rat, in Current Protocols in Pharmacology. Enna S J, Williams M, Ferkany J W, Kenaki T, Porsolt R E and Sullivan J P, eds., pp 5.4.1-5.4.3, John Wiley & Sons, New York). The full development of the edema is neutrophil-dependent (Salvemini D. et al. (1996) Br. J. Pharmacol. 118: 829).
Female Sprague Dawley rats were used in groups of 8-12 and compounds of the invention were administered orally at up to 50 mg/kg 60 min prior to carrageenan exposure. The control group was administered orally an equal volume of vehicle (PBS). Edema in the paws was induced as previously described by injecting 50 μL of a 0.5% solution of carrageenan (Type IV Lambda, Sigma) in saline with a 27-G needle s.c. in the right foot pad. (See Whiteley P. E. and Dalrymple S. A. (1998), Models of inflammation: carrageenan-induced paw edema in the rat, in Current Protocols in Pharmacology, Enna S J, Williams M, Ferkany J W, Kenaki T, Porsolt R E and Sullivan J P, eds., pp 5.4.1-5.4.3, John Wiley & Sons, New York) The size of the tested foot of each animal was measured volumetrically with a plethysmometer immediately after injection of carrageenan solution and at various times up to 360 min after carrageenan induction.
Results of experiments with the compounds II-1-E, I-1-Z, and I-2-Z are shown in FIG. 1, FIG. 5, and FIG. 6, respectively.
Using the same procedure discussed above, the size of the foot of each animal was measured volumetrically before induction of edema, and at 1.5, 3, 4.5 and 6 h after the carrageenan injection. The absolute decreases in paw swelling at 6 h with 1, 10 and 50 mg/kg were 5±11%, 20±9% and 32±6% respectively. Statistical analyses were performed with repeated measures ANOVA followed by Dunnett's test for multiple comparisons.
Paw edema was induced in groups of eight Sprague Dawley rats by injecting 50 μL of a 0.375% solution of carrageenan X in saline, subcutaneously in the foot. After one hour animals were orally dosed once with PBS, compound I-1-Z at 50 mg/kg or with indomethacin at 3 mg/kg. The size of the paws were measured before induction of edema (baseline), and at 1.5, 3, 4.5 and 6 h after carrageenan injection. […] Statistical analyses were performed with repeated measures ANOVA followed by Dunnett's test for multiple comparisons.
Groups of eight Sprague Dawley rats were orally administered PBS, or 0.01, 0.1 or 1 mg/kg of compound I-1-Z. One hour later paw edema was induced in all animals by injecting 50 μL of a 0.5% solution of carrageenan X in saline, subcutaneously into the footpad. The size of the foot of each animal was measured volumetrically before induction of edema, and at 1.5, 3, 4.5 and 6 h after the carrageenan injection. The absolute decreases in paw swelling at 6 h with 0.1 and 1 mg/kg were 34±8 and 29±8% respectively. Statistical analyses were performed with repeated measures ANOVA followed by Dunnett's test for multiple comparisons.
(The carrageenan paw model is a standard test of acute inflammation.)

The target of assay [4] is T2, CCKB (h) (CCK2) (Homo sapiens, UniProt P32239).
T2 construct: expressed in transfected cells; host or cells: CHO cells
T2 sequence (P32239 whole entry): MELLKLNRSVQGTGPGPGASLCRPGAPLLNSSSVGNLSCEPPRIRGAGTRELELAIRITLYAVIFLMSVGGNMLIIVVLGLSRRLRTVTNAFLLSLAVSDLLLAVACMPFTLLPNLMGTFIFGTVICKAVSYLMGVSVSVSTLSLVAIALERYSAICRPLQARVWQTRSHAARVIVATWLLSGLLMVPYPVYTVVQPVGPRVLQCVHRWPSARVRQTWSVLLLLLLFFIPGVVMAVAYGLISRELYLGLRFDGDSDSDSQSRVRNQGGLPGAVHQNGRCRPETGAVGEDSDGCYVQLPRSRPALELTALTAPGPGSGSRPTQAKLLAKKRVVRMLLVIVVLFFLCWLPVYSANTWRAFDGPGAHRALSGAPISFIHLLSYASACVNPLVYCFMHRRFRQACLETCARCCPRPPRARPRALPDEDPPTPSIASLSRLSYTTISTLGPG
Briefly: Receptor binding screen, [^125I]CCK-8. The following applies: 10 uM Concentration of Compound I-1-Z; read-out: Mean Value, percent inhibition of control specific binding: CCKB (h) (CCK2).

Assay [5] deals with T3, NT1 (h) (NTS1) (Homo sapiens, UniProt P30989).
T3 construct: expressed in transfected cells; host or cells: CHO cells
T3 sequence (P30989 whole entry): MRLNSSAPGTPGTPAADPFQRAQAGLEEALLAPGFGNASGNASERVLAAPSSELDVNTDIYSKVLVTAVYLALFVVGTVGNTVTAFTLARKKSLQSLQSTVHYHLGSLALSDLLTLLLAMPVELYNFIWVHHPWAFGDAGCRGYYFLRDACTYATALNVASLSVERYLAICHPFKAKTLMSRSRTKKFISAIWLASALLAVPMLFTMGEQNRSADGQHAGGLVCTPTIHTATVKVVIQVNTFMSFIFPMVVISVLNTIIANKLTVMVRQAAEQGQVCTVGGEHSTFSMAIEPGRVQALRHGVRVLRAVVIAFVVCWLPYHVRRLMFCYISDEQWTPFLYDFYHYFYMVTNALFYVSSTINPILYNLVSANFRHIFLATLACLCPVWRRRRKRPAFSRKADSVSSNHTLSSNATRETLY
The experiment in a line: Receptor binding screen, [^125I]Tyr^3-neurotensin. The following applies: 10 uM Concentration of Compound I-1-Z; read-out: Mean Value, percent inhibition of control specific binding: NT1 (h) (NTS1).

Assay [6] has as its system experimental autoimmune encephalomyelitis. The experiment in a line: Experimental autoimmune encephalomyelitis (EAE), MOG peptide 35-55. It counts as in vivo, C57BL/6 mice. The conditions noted are these: 40 mg/kg/dose once daily i.p. for 30 consecutive days. As to the method: SSAO/VAP-1 is expressed on the endothelium of inflamed tissues/organs including brain and spinal cord. Its ability to support lymphocyte transendothelial migration may be an important systemic function of SSAO/VAP-1 in inflammatory diseases such as multiple sclerosis and Alzheimer's disease. An analysis of the use of SSAO inhibitors to treat inflammatory disease of the central nervous system (CNS) was performed through the use of an experimental autoimmune encephalomyelitis model (EAE) in C57BL/6 mice. EAE in rodents is a well-characterized and reproducible animal model of multiple sclerosis in human (Benson J. M. et al. (2000) J. Clin. Invest. 106:1031). Multiple sclerosis is a chronic immune-mediated disease of the CNS characterized by patchy perivenular inflammatory infiltrates in areas of demyelination and axonal loss. As an animal model, EAE can be induced in mice by immunization with encephalitogenic myelin antigens in the presence of adjuvant. […]
To examine the role of SSAO/VAP-1 as a major regulator of the lymphocyte recruitment to the CNS, compound II-1-E, an SSAO inhibitor, was evaluated in an EAE model.
Twenty female C57BL/6 mice were immunized subcutaneously (s.c). with myelin oligodendrocyte glycoprotein 35-55 (MOG peptide 35-55) in Complete Freund Adjuvant (CFA) on day 0, followed by i.p. injections of 500 ng pertussis toxin (one pertussis toxin injection on day 0, a second pertussis toxin injection on day 2). Groups of 10 mice received either compound II-1-E 40 mg/kg/dose, once daily i.p. for 30 consecutive days), or vehicle control (once/day for 30 consecutive days) all starting from one day after the immunization and all administered i.p. The animals were monitored for body weight, signs of paralysis and death according to a 0-5 scale of scoring system as follows: 1=limp tail or waddling gait with tail tonicity; 2=waddling gait with limp tail (ataxia); 2.5=ataxia with partial limb paralysis; 3=full paralysis of one limb; 3.5=full paralysis of one limb with partial paralysis of second limb; 4=full paralysis of two limbs; 4.5=moribund; 5=death. […]

T1 sequence (P29274 whole entry): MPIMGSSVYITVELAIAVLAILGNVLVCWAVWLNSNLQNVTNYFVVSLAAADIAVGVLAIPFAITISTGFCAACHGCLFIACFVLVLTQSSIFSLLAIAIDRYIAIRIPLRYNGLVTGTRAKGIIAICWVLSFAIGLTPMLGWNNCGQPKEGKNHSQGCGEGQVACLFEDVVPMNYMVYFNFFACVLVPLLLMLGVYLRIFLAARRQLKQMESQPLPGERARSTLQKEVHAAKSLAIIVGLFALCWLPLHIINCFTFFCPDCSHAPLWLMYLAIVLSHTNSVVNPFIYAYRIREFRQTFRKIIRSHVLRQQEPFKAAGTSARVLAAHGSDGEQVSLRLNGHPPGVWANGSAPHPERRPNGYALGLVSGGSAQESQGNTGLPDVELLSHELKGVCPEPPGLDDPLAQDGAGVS

As to `COc1ccc(C/C(=C/F)CN)cc1.Cl` [Compound I-1-Z, (Z)-3-Fluoro-2-(4-methoxybenzyl)-allylamine hydrochloride], the “Mean Value, percent inhibition of control specific binding: P2X” value in assay [1] is −2%. Further, the figures for the inhibition at 10 µM in assay [2], in assay [4] and in assay [5] were 13%, -5% and -1%, respectively. Also, the “absolute decrease in paw swelling at 6 h” value in assay [3] (0.1 mg/kg orally one hour before carrageenan, low doses, FIG. 13) was found to be 34±8%; in assay [3] (1 mg/kg orally one hour before carrageenan, low doses, FIG. 13) it was 29±8%; in assay [3] (1 mg/kg, dose response, FIG. 7), 5±11%; in assay [3] (10 mg/kg, dose response, FIG. 7) it was 20±9%; in assay [3] (50 mg/kg, dose response, FIG. 7) it was 32±6%. Moreover, the paw swelling result in assay [3] (between 2-6 h) is “clearly reduced the paw swelling”. Further, in assay [3] (therapeutic dosing: 50 mg/kg orally one hour after 0.375% carrageenan, FIG. 8), the “inhibition of paw edema at 6 h” value turned out to be 50±4%.
On to `CCOc1ccc(C/C(=C/F)CN)cc1.Cl` [Compound I-2-Z, (Z)-3-Fluoro-2-(4-ethoxybenzyl)-allylamine hydrochloride], for which the paw swelling result in assay [3] (between 3-6 h) is reported as “clearly reduced the paw swelling”.
As to `NC/C(F)=C\Cc1cc(F)cc(C(F)(F)F)c1` [II-1-E, (E)-2-Fluoro-4-(3-fluoro-5-trifluoromethylphenyl)-but-2-enylamine], in assay [6], the “day until which similar clinical scores between the two groups was not reached” value stood at 38 days and the “mean clinical score of the treated group from day 14 onward” value was “well below that in the control group”. Besides, the “day at which disease reached 100% incidence” value in assay [6] (control group day 13) was found to be 24 days. Further, in assay [3] (between 2-6 h), the paw swelling result is listed as “clearly reduced the paw swelling”.
